pIC50: −log10 of the molar value.
Molecular target: T1, full-length human PKCι (Homo sapiens, UniProt P41743)
T1 construct: Recombinant, full-length human PKCι expressed in Sf21 insect cells is also commercially available; purchased; host or cells: Sf21 insect cells
T1 sequence (P41743 1-596): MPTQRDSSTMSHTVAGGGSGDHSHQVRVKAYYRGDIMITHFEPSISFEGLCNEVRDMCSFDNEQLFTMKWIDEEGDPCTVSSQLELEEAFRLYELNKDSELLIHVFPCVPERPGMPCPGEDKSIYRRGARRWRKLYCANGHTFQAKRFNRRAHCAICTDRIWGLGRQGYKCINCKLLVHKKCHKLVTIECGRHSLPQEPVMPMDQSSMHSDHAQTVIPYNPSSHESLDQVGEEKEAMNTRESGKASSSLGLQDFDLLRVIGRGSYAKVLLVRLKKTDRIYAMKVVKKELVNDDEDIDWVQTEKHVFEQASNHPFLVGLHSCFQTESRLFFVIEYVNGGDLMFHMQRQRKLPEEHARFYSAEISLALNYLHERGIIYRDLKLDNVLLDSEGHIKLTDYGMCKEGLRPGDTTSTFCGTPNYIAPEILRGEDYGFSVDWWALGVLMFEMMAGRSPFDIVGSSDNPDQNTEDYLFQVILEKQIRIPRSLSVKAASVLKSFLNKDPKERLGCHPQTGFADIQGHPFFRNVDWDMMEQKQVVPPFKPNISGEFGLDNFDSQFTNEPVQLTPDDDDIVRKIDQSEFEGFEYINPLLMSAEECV
Assay: PKCι IC50 IMAP assay, full-length PKCι at 150 μM ATP
Format: biochemical
Settings: read-out: IC50 in IMAP assay against full length PKCi at 150 μM ATP
Method in brief: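 IMAP fluorescence polarisation (ex 485/em 530 nm) read-out; % inhibition set from no-compound (0%) and no-enzyme (100%) controls, IC50 from dose-response curve fit. Sf21-expressed full-length enzyme ~15 pM, 100 nM FAM peptide, ATP 150 μM (5× KM^APP), 60 min at RT.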

SMILES | pIC50
COc1cncc2nc(-c3ccnc(NC(=O)C4CC4)c3)nc(N3CCNCC3)c12 [Example 216, Cyclo-propane-carboxylic acid[4-(5-methoxy-4-piperazin-1-yl-pyrido[3,4-d]pyrimidin-2-yl)-pyridin-2-yl]-amide] | > 7.00
CC(C)(C)OC(=O)N1CCCN(c2nc(-c3ccncc3)nc3cnccc23)CC1 [Example 23, tert-butyl 4-[2-(pyridin-4-yl)-pyrido[3,4-d]pyrimidin-4-yl]-1,4-diazepane-1-carboxylate] | 4.40 to 5.00
CC1(C)CN(c2nc(-c3ccnc(Nc4nc(F)cc(F)c4F)c3)nc3cncc(C4CC4)c23)CCN1 [Example 845, {4-[5-Cyclopropyl-4-(3,3-dimethyl-piperazin-1-yl)-pyrido[3,4-d]pyrimidin-2-yl]-pyridin-2-yl}-(3,4,6-trifluoro-pyridin-2-yl)-amine] | > 7.00
c1ccn2nc(Nc3cc(-c4nc(N5CCNCC5)c5c(C6CCC6)cncc5n4)ccn3)nc2c1 [Example 2022, [4-(5-Cyclobutyl-4-piperazin-1-yl-pyrido[3,4-d]pyrimidin-2-yl)-pyridin-2-yl]-[1,2,4]triazolo[1,5-a]pyridin-2-yl-amine] | > 7.00
C[C@@H](Nc1cc(-c2nc(N3CCNCC3)c3c(C4CC4)cncc3n2)ccn1)c1ccc2ccccc2c1 [Example 2160, [4-(5-Cyclopropyl-4-piperazin-1-yl-pyrido[3,4-d]pyrimidin-2-yl)-pyridin-2-yl]-((R)-1-naphthalen-2-yl-ethyl)-amine] | > 7.00
COc1cncc2nc(-c3ccnc(Nc4cccc(C)n4)c3)nc(N3CCNCC3)c12 [Example 415, [4-(5-Methoxy-4-piperazin-1-yl-pyrido[3,4-d]pyrimidin-2-yl)-pyridin-2-yl]-(6-methyl-pyridin-2-yl)-amine] | > 7.00
c1cc(-c2nc(N3CCNCC3)c3c(C4CC4)cncc3n2)c2c3c([nH]c2n1)CCCC3 [Example 2208, 4-(5-Cyclopropyl-4-piperazin-1-yl-pyrido[3,4-d]pyrimidin-2-yl)-6,7,8,9-telrahydro-5H-pyrido[2,3-b]indole] | 6.00 to 7.00
NC(=O)N1CCN(c2nc(-c3ccnc(Nc4ccccc4)c3)nc3cncc(C4CC4)c23)CC1 [Example 638, 4-[5-Cyclopropyl-2-(2-phenylamino-pyridin-4-yl)-pyrido[3,4-d]pyrimidin-4-yl]-piperazine-1-carboxylic acidamide] | 6.00 to 7.00
c1ccc(C[C@H]2CN(Cc3ccccc3)CCN2c2nc(-c3ccncc3)nc3cnccc23)cc1 [Example 20, (2S)-2,4-dibenzyl-1-[2-(pyridin-4-yl)-pyrido[3,4-d]-pyrimidin-4-yl]-piperazine] | 4.40 to 5.00
Fc1cccc(Nc2cc(-c3nc(N4CCNC(C(F)(F)F)C4)c4c(C5CC5)cncc4n3)ccn2)n1 (centres unmarked) [Example 268, {4-[5-Cyclopropyl-4-(3-trifluoromethyl-piperazin-1-yl)-pyrido[3,4-d]pyrimidin-2-yl]-pyridin-2-yl}-(6-fluoro-pyridin-2-yl)-amine] | 6.00 to 7.00
FC(F)(F)c1ccc(Cl)c(Nc2cc(-c3nc(N4CCNCC4)c4c(C5CC5)cncc4n3)ccn2)c1 [Example 597, (2-Chloro-5-trifluoromethyl-phenyl)-[4-(5-cyclopropyl-4-piperazin-1-yl-pyrido[3,4-d]pyrimidin-2-yl)-pyridin-2-yl]-amine] | 4.40 to 5.00
N#Cc1ccnc(Nc2cc(-c3nc(N[C@@H]4CCNC4)c4ccncc4n3)ccn2)c1 [Example 321, 2-{4-[4-((R)-Pyrrolidin-3-ylamino)-pyrido[3,4-d]pyrimidin-2-yl]-pyridin-2-ylamino}-isonicotinonitrile] | > 7.00
Cc1cncc2nc(-c3ccncc3)nc(N3CCNCC3)c12 [Example 138, 1-[5-methyl-2-(pyridin-4-yl)pyrido[3,4-d]pyrimidin-4-yl]piperazine] | > 7.00
COc1cncc2nc(-c3ccnc(NC4CCCC4)c3)nc(N3CCNCC3)c12 [Example 241, Cyclopentyl-[4-(5-methoxy-4-piperazin-1-yl-pyrido[3,4-d]pyrimidin-2-yl)-pyridin-2-yl]-amine] | > 7.00

Source: patent US9914730B2, “Azaquinazoline inhibitors of Atypical protein Kinase C” (Ignyta, Inc., priority 2012, dated 2018)
